pKi: −log10 of the molar value.
Columns and labels:
[1] = molecular target: T1, Adenosine receptor A1 (Rattus norvegicus, UniProt P25099); assay: biochemical
T1 sequence (P25099 whole entry): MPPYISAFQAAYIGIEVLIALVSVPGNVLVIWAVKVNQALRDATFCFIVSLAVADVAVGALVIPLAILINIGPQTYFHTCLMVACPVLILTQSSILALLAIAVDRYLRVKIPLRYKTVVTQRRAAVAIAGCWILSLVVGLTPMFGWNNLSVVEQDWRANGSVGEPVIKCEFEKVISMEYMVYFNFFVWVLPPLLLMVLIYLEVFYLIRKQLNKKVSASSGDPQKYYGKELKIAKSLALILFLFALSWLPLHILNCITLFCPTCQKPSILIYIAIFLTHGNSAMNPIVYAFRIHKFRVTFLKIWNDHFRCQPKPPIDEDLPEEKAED
Description: Binding affinity towards adenosine A1 receptor in rat brain cortex

[2] = molecular target: Adenosine receptor A2a (Rattus norvegicus, UniProt P30543); assay: biochemical
Chain of Adenosine receptor A2a (P30543 whole entry): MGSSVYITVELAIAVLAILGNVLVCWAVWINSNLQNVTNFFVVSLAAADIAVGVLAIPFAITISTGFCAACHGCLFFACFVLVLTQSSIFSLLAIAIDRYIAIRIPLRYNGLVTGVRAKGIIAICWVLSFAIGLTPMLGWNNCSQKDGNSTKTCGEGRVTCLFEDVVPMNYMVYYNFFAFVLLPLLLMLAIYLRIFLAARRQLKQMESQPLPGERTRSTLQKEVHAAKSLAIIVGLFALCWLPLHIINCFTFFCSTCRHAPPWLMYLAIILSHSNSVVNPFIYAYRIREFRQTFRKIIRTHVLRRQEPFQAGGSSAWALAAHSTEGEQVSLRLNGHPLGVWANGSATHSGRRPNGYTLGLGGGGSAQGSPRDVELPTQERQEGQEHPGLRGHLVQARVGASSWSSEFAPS
Description: Binding affinity towards adenosine A2A receptor in rat brain striatum

| pKi [1] | pKi [2] | Compound |
| --- | --- | --- |
| 4.85 | 6.00 | Nc1nc(OC2CCCC2)nc2c1ncn2[C@@H]1O[C@H](CO)[C@@H](O)[C@H]1O |
| – | 7.43 | Nc1nc(C#CCCc2ccccc2)nc2c1ncn2[C@@H]1O[C@H](CO)[C@@H](O)[C@H]1O |
| – | 8.27 | CCCCCC#Cc1nc(N)c2ncn([C@@H]3O[C@H](CO)[C@@H](O)[C@H]3O)c2n1 |
| 5.89 | 5.82 | CCOc1nc(N)c2ncn([C@@H]3O[C@H](CO)[C@@H](O)[C@H]3O)c2n1 |
| – | 6.96 | Nc1nc(C#Cc2ccccc2)nc2c1ncn2[C@@H]1O[C@H](CO)[C@@H](O)[C@H]1O |
| – | 8.12 | CCNC(=O)[C@H]1OC(n2cnc3c(N)nc(NCCc4ccc(Cl)cc4)nc32)[C@H](O)[C@@H]1O (some centres undefined) |
| 5.52 | 5.49 | Nc1nc(OCC2CCCCC2)nc2c1ncn2C1O[C@H](CO)[C@@H](O)[C@H]1O (some centres undefined) |
| 6.42 | 7.40 | COc1ccc(CCOc2nc(N)c3ncn(C4O[C@H](CO)[C@@H](O)[C@H]4O)c3n2)cc1OC (some centres undefined) |
| 5.07 | 5.95 | CCNC(=O)[C@H]1OC(n2cnc3c(N)nc(C#CNCc4ccccc4)nc32)[C@H](O)[C@@H]1O (some centres undefined) |
| 5.83 | 6.28 | CCC(CC)CCOc1nc(N)c2ncn(C3O[C@H](CO)[C@@H](O)[C@H]3O)c2n1 (some centres undefined) |
| 6.28 | 7.25 | Nc1nc(OCCc2ccccc2Cl)nc2c1ncn2C1O[C@H](CO)[C@@H](O)[C@H]1O (some centres undefined) |
| 7.42 | 7.06 | COCc1nc(N)c2ncn(C3O[C@H](CO)[C@@H](O)[C@H]3O)c2n1 (some centres undefined) |
| 4.70 | 5.13 | CC(C)Oc1nc(N)c2ncn(C3O[C@H](CO)[C@@H](O)[C@H]3O)c2n1 (some centres undefined) |
| 6.12 | 6.49 | COc1cccc(CCOc2nc(N)c3ncn(C4O[C@H](CO)[C@@H](O)[C@H]4O)c3n2)c1 (some centres undefined) |
| 5.96 | 7.74 | Nc1nc(OCCCCC2CCCCC2)nc2c1ncn2C1O[C@H](CO)[C@@H](O)[C@H]1O (some centres undefined) |
| 6.22 | 5.66 | Nc1nc(OCc2ccccc2)nc2c1ncn2C1O[C@H](CO)[C@@H](O)[C@H]1O (some centres undefined) |
| 6.69 | 7.92 | CCCCCCc1nc(N)c2ncn(C3O[C@H](CO)[C@@H](O)[C@H]3O)c2n1 (some centres undefined) |
| 7.85 | 8.21 | CCNC(=O)[C@H]1OC(n2cnc3c(N)nc(CC4CCC(COC(C)=O)CC4)nc32)[C@H](O)[C@@H]1O (some centres undefined) |
| 6.33 | 8.01 | CCNC(=O)[C@H]1OC(n2cnc3c(N)nc(C#CNCCc4ccccc4)nc32)[C@H](O)[C@@H]1O (some centres undefined) |
| – | 8.00 | Nc1nc(C#CC2CCCCC2)nc2c1ncn2C1O[C@H](CO)[C@@H](O)[C@H]1O (some centres undefined) |
| 5.59 | 6.15 | CC(C)COc1nc(N)c2ncn(C3O[C@H](CO)[C@@H](O)[C@H]3O)c2n1 (some centres undefined) |
| 5.57 | 5.34 | CCC(CC)COc1nc(N)c2ncn(C3O[C@H](CO)[C@@H](O)[C@H]3O)c2n1 (some centres undefined) |
| 7.55 | 8.35 | CCNC(=O)[C@H]1OC(n2cnc3c(N)nc(CC4CCC(C(=O)OC)CC4)nc32)[C@H](O)[C@@H]1O (some centres undefined) |
| 6.35 | 7.41 | Cc1ccccc1CCOc1nc(N)c2ncn(C3O[C@H](CO)[C@@H](O)[C@H]3O)c2n1 (some centres undefined) |
| 5.90 | 8.05 | CCNC(=O)[C@H]1OC(n2cnc3c(N)nc(C#CNCCc4ccc(CC(=O)OC)cc4)nc32)[C@H](O)[C@@H]1O (some centres undefined) |
| 7.14 | 6.16 | Nc1nc(OCCO)nc2c1ncn2C1O[C@H](CO)[C@@H](O)[C@H]1O (some centres undefined) |
| 6.34 | 6.82 | CCCCCOc1nc(N)c2ncn(C3O[C@H](CO)[C@@H](O)[C@H]3O)c2n1 (some centres undefined) |
| 5.46 | 5.24 | Nc1nc(Oc2ccccc2)nc2c1ncn2C1O[C@H](CO)[C@@H](O)[C@H]1O (some centres undefined) |
| 5.80 | 6.92 | Nc1nc(OCCC2CCCC2)nc2c1ncn2C1O[C@H](CO)[C@@H](O)[C@H]1O (some centres undefined) |
| 6.74 | 6.96 | Nc1nc(OCCc2cccc(F)c2)nc2c1ncn2[C@@H]1O[C@H](CO)[C@@H](O)[C@H]1O (stereo in doubt; 92) |

The remaining lines, values behind:

| Compound | pKi [1] | pKi [2] |
| --- | --- | --- |
| Nc1nc(C#CC2CCCC2)nc2c1ncn2[C@@H]1O[C@H](CO)[C@@H](O)[C@H]1O | – | 7.92 |
| CC(C)(C)OC(=O)C1CCCN1C[C@@H](O)[C@H](Cc1ccccc1)NC(=O)[C@H](CC(N)=O)NC(=O)OCc1ccccc1 (some centres undefined) | 6.89 | 8.66 |
| C[C@@H](CCOc1nc(N)c2ncn(C3O[C@H](CO)[C@H](O)[C@@H]3O)c2n1)c1ccccc1 (some centres undefined) | 5.80 | 5.77 |
| Nc1nc(OCCCc2ccccc2)nc2c1ncn2[C@@H]1O[C@H](CO)[C@@H](O)[C@H]1O | 5.44 | 5.92 |
| Nc1nc(OCCc2ccccc2)nc2c1ncn2[C@@H]1O[C@H](CO)[C@@H](O)[C@H]1O | 6.89 | 7.77 |
| Nc1nc(OCCCCc2ccccc2)nc2c1ncn2[C@@H]1O[C@H](CO)[C@@H](O)[C@H]1O | 5.62 | 6.77 |
| Nc1nc(OCCC2CCCCC2)nc2c1ncn2[C@@H]1O[C@H](CO)[C@@H](O)[C@H]1O | 5.80 | 7.66 |
| Nc1nc(OCCc2ccc(F)cc2)nc2c1ncn2[C@@H]1O[C@H](CO)[C@@H](O)[C@H]1O | 6.30 | 7.01 |
| CCc1nc(N)c2ncn(C3O[C@H](CO)[C@@H](O)[C@H]3O)c2n1 (some centres undefined) | 6.73 | 7.67 |
| COc1ccccc1CCOc1nc(N)c2ncn(C3O[C@H](CO)[C@@H](O)[C@H]3O)c2n1 (some centres undefined) | 6.72 | 7.44 |
| C#Cc1nc(N)c2ncn(C3O[C@H](CO)[C@@H](O)[C@H]3O)c2n1 (some centres undefined) | – | 7.42 |
| CCCOc1nc(N)c2ncn(C3O[C@H](CO)[C@@H](O)[C@H]3O)c2n1 (some centres undefined) | 5.92 | 6.44 |
| CCCc1nc(N)c2ncn(C3O[C@H](CO)[C@@H](O)[C@H]3O)c2n1 (some centres undefined) | 6.81 | 8.12 |
| COc1cc(CCOc2nc(N)c3ncn(C4O[C@H](CO)[C@@H](O)[C@H]4O)c3n2)cc(OC)c1OC (some centres undefined) | 5.30 | 6.48 |
| Nc1nc(CCO)nc2c1ncn2C1O[C@H](CO)[C@@H](O)[C@H]1O (some centres undefined) | 7.09 | 7.40 |
| CCCCCCOc1nc(N)c2ncn(C3O[C@H](CO)[C@@H](O)[C@H]3O)c2n1 (some centres undefined) | 6.05 | 6.80 |
| Nc1nc(C#CCCC2CCCCC2)nc2c1ncn2C1O[C@H](CO)[C@@H](O)[C@H]1O (some centres undefined) | – | 7.59 |
| Cc1ccc(CCOc2nc(N)c3ncn(C4O[C@H](CO)[C@@H](O)[C@H]4O)c3n2)cc1 (some centres undefined) | 7.31 | 7.96 |
| CCNC(=O)[C@H]1OC(n2cnc3c(N)nc(NCCc4ccc(OCC(=O)O)cc4)nc32)[C@H](O)[C@@H]1O (some centres undefined) | – | 7.38 |
| Nc1nc(CO)nc2c1ncn2C1O[C@H](CO)[C@@H](O)[C@H]1O (some centres undefined) | 8.00 | 7.69 |

| Compound | pKi [1] | pKi [2] |
| --- | --- | --- |
| CCOCCCc1nc(N)c2ncn(C3O[C@H](CO)[C@@H](O)[C@H]3O)c2n1 (some centres undefined) | 6.61 | 7.89 |
| Nc1nc(OCCc2cccc(Cl)c2)nc2c1ncn2C1O[C@H](CO)[C@@H](O)[C@H]1O (some centres undefined) | 6.60 | 7.12 |
| CC(C)CCCOc1nc(N)c2ncn(C3O[C@H](CO)[C@@H](O)[C@H]3O)c2n1 (some centres undefined) | 5.68 | 6.89 |
| CCCOCc1nc(N)c2ncn(C3O[C@H](CO)[C@@H](O)[C@H]3O)c2n1 (some centres undefined) | – | 7.97 |
| CCCOCCc1nc(N)c2ncn(C3O[C@H](CO)[C@@H](O)[C@H]3O)c2n1 (some centres undefined) | 6.89 | 7.99 |
| COc1ccc(CCOc2nc(N)c3ncn(C4O[C@H](CO)[C@@H](O)[C@H]4O)c3n2)cc1 (some centres undefined) | 6.32 | 7.49 |
| Nc1nc(C#CCCC2CCCC2)nc2c1ncn2C1O[C@H](CO)[C@@H](O)[C@H]1O (some centres undefined) | – | 8.47 |
| Nc1nc(OCCCCCc2ccccc2)nc2c1ncn2C1O[C@H](CO)[C@@H](O)[C@H]1O (some centres undefined) | 6.02 | 7.28 |
| CCNC(=O)[C@H]1OC(n2cnc3c(N)nc(C#CNCCc4ccc(CC(=O)O)cc4)nc32)[C@H](O)[C@@H]1O (some centres undefined) | 5.31 | 7.35 |
| Nc1nc(OCCCC2CCCCC2)nc2c1ncn2C1O[C@H](CO)[C@@H](O)[C@H]1O (some centres undefined) | 5.55 | 7.66 |
| CCNC(=O)[C@H]1OC(n2cnc3c(N)nc(C#CN(C)CCc4ccccc4)nc32)[C@H](O)[C@@H]1O (some centres undefined) | 4.92 | 7.15 |
| Cc1cccc(CCOc2nc(N)c3ncn(C4O[C@H](CO)[C@@H](O)[C@H]4O)c3n2)c1 (some centres undefined) | 6.85 | 7.21 |
| CCCCOc1nc(N)c2ncn(C3O[C@H](CO)[C@@H](O)[C@H]3O)c2n1 (some centres undefined) | 5.60 | 6.57 |
| CCCCc1nc(N)c2ncn(C3O[C@H](CO)[C@@H](O)[C@H]3O)c2n1 (some centres undefined) | 6.90 | 8.55 |
| CCNC(=O)[C@H]1OC(n2cnc3c(N)nc(CC4CCC(CO)CC4)nc32)[C@H](O)[C@@H]1O (some centres undefined) | 9.08 | 9.32 |
| CCNC(=O)[C@H]1OC(n2cnc3c(N)nc(C#CNCCc4ccc(F)cc4)nc32)[C@H](O)[C@@H]1O (some centres undefined) | 5.93 | 8.11 |
| CC[C@H](COc1nc(N)c2ncn(C3O[C@H](CO)[C@@H](O)[C@H]3O)c2n1)c1ccccc1 (some centres undefined) | 5.64 | 6.37 |
| CCNC(=O)[C@H]1OC(n2cnc3c(N)nc(CC4CCC(C(=O)O)CC4)nc32)[C@H](O)[C@@H]1O (some centres undefined) | 6.53 | 7.70 |
| Nc1nc(OCCc2cccc(F)c2)nc2c1ncn2[C@@H]1O[C@H](CO)[C@@H](O)[C@H]1O (stereo in doubt; 24) | 6.82 | 7.24 |
| Nc1nc(OCCc2ccc(Cl)cc2)nc2c1ncn2[C@@H]1O[C@H](CO)[C@@H](O)[C@H]1O [SONEDENOSON] | 7.05 | 7.66 |
